In data set [1] the test system is MPTP-lesioned primate (marmosets) model of Parkinson's disease. The conditions noted are these: 10 mg/kg i.p., without attenuation of the anti-parkinsonian actions of L-DOPA; cited from earlier work.
In a further data set the test system is rats. Nature of the data set: Seizure-like convulsant activity in rats. Type of data set: in vivo, rat. The conditions noted are these: oral doses up to 40 mg/kg, results not shown.
A further data set concerns haloperidol-treated rats. Nature of the data set: Locomotor activity in haloperidol treated rats. Type of data set: in vivo, rat. The conditions noted are these: for Efficacy on locomotor activity (FIG. 1): compound 15 minutes after haloperidol, 1, 3, 10 or 30 mg/kg, total counts over 1 h. On the procedure:
(§1) Behavioral parameters were monitored in transparent shoebox cages that measured 45×25×20 cm, with a 1-cm depth of wood chips on the cage floor and a plastic grid on top of the cage. Rectangular photocell monitors with a bank of 3 photocell beams surrounded each test cage. Ambulations (locomotor activity: total number of beam breaks in 1 hour) were recorded by computer and stored for each test session.
(§2) Animals were administered injections of dextrose, reserpine or haloperidol. Formula (i) or Formula (ii) was then administered 18 hours after reserpine at doses of 3, 10 or 30 mg/kg or 15 minutes after haloperidol at doses of 1, 3, 10 or 30 mg/kg. Animals were monitored over a 60-min period in all instances, and data are expressed as total counts over the entire 1 h test period. […] In these studies, clinically effective therapies such as dopamine replacement therapy restore locomotor activity in dopamine-depleted or dopamine antagonist treated animals. Dopamine replacement therapy also, however, produces an overshoot in locomotor activity beyond the locomotor counts observed with normal control animals (with intact dopamine systems). This is considered the activating component of dopamine replacement therapy that results in dyskinesias in Parkinson's patients.

The next data set has as its target T1, kappa-opioid receptor (Cavia porcellus, UniProt P41144).
T1 construct: kappa receptors from guinea pig cerebellar homogenate; from tissue; host or cells: guinea pig cerebellar homogenate (membrane fractions)
The data set is described as follows: Radioligand binding, kappa receptor ([3H]U69593). The arrangement: species or system guinea pig. The protocol:
(§3) The basic pharmacology of the Formulas (i)-(iv) is described below in terms of receptor binding affinity (delta and mu receptors from rat whole brain homogenate; kappa receptors from guinea pig cerebellar homogenate), intrinsic activity in mouse isolated vas deferens (delta receptor) and guinea pig isolated ileum (mu receptor).
(§4) Membrane fractions were incubated with test compound or naloxone (1×10^−6 M) plus 0.1 nM of the delta-opioid receptor agonist [^3H] DPDPE (specific activity 50.6 Ci/mmol), 0.1 nM of the mu-opioid receptor agonist [^3H]DAMGO (specific activity 50.0 Ci/mmol) or 0.1 nM of the kappa-opioid receptor agonist [^3H]U69593 (specific activity 41.4 Ci/mmol) in 2 ml of 10 mM Tris-HCl buffer containing 5 mM MgCl2 and protease inhibitors. Incubation was carried out for 90 min at 25° C. in order to permit the complete equilibration of the radioligand with its receptor. The reaction was terminated by rapid filtration through Whatman GF/C glass fiber filters using a cell harvester (model M-48R, Brandel Instruments, Gaithersberg, Md.) followed by two 5 ml rinses with ice-cold 50 mM Tris buffer. Non-specific binding was defined as that radioligand bound in the presence of 1×10^−6 M naloxone.

The target in a further data set is T2, delta-opioid receptor (Rattus norvegicus, UniProt P33533).
T2 construct: delta and mu receptors from rat whole brain homogenate; from tissue; host or cells: rat whole brain homogenate (membrane fractions)
Nature of the data set: Radioligand binding, delta receptor ([3H]DPDPE). The protocol: as §3, §4

Data set [2] relates to Parkinson's disease rodent models. The data set is described as follows: Parkinson's disease rodent models (summary statements). Type of data set: in vivo, rat. The conditions noted are these: for Overshoot of locomotor activation beyond normal control animals: haloperidol- or reserpine-treated rats. The protocol:
as §1, §2
An opioid receptor agonist selective for the delta receptor. • 2. Active in Parkinson's disease rodent models. • a. Potent at improving locomotor activity of haloperidol-treated rats. • b. Potent at improving locomotor activity in reserpine treated rats. • 3. Orally active in Parkinson's disease rodent models. • a.

A further data set relates to reserpine treated rats. Nature of the data set: Locomotor activity in reserpine treated rats. Conditions: compound 18 hours after reserpine, 3, 10 or 30 mg/kg, total counts over 1 h. Type of data set: in vivo, rat. On the procedure:
as §1, §2

The target of the next data set is T3, delta receptor (Mus musculus, UniProt P32300).
T3 construct: vasa deferentia were isolated from male CD-1 mice; tissue Charles River; host or cells: isolated vas deferens of male CD-1 mice
Nature of the data set: Intrinsic activity, electrically-induced contractions of mouse isolated vas deferens (MVD). Type of data set: cell-based. The protocol: as §3
Tension development in isolated mouse vas deferens was measured as described previously (Chang et al., 1993). Following cervical dislocation, vasa deferentia were isolated from male CD-1 mice (Charles River, Raleigh, N.C.) weighing 20-25 g. Muscles were suspended in individual organ baths containing Mg-free Krebs-Henseleit solution (37° C., aerated with O2—CO2, 95:5) of the following composition (mM): NaCl, 117.5; KCl, 4.75; CaCl2, 2.6; KH2PO4, 1.2; NaHCO3, 24.5; and glucose, 11. The vas deferens segments were positioned between platinum electrodes (Radnoti Glassware Technology Inc., Monrovia, Calif.) and connected to a Grass (Grass-Telefactor, West Warwick, R.I.) FTO3 isometric force transducer under a resting tension of 0.5 g. Muscles were stimulated to contract by administering 400 msec pulse trains (1 msec duration, supramaximal voltage, 10 Hz) with a Grass S88 stimulator. An IC50 value for test compound inhibition of electrically-induced contractions was produced through the addition of cumulative concentrations of test compound to the bathing solution (Chang et al., 1993).
The ED50 values for formula (ii) were extrapolated from curves showing the dose concentration plotted against the response and are presented in FIG. 2.

The next data set deals with mice. Nature of the data set: Seizure-like convulsion incidence in mice. In kind it is in vivo, mouse. The text has this:
One of the most obvious side-effects of potent delta agonists that rapidly penetrate the blood brain barrier is convulsive episodes reminiscent of possible seizure-like brain activity. The mouse is the chosen species for study of these effects since the mouse is the most highly convulsion-sensitive rodent species and mice present with a clear and obvious, whole body tonic-clonic convulsion. One of the earliest phases of delta agonist safety assessments is thus the determination of the convulsion threshold in mice.

The target of another data set is T4, mu-opioid receptor (Rattus norvegicus, UniProt P33535).
T4 construct: delta and mu receptors from rat whole brain homogenate; from tissue; host or cells: rat whole brain homogenate (membrane fractions)
The data set is described as follows: Radioligand binding, mu receptor ([3H]DAMGO). The protocol: as §3, §4

SMILES strings stand for the structures. Read-outs that look alike come from different tables or passages of the source.

T1 sequence (P41144 whole entry): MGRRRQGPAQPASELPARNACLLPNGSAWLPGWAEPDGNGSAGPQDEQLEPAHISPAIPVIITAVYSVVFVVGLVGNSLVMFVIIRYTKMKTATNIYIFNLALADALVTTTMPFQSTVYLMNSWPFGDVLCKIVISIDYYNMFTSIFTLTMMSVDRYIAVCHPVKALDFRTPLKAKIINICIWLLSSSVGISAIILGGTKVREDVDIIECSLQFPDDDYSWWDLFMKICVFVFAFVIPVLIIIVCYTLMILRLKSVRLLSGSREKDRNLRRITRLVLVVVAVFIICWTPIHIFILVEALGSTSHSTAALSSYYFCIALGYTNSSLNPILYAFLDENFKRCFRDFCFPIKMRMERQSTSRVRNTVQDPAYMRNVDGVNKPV
T3 sequence (P32300 whole entry): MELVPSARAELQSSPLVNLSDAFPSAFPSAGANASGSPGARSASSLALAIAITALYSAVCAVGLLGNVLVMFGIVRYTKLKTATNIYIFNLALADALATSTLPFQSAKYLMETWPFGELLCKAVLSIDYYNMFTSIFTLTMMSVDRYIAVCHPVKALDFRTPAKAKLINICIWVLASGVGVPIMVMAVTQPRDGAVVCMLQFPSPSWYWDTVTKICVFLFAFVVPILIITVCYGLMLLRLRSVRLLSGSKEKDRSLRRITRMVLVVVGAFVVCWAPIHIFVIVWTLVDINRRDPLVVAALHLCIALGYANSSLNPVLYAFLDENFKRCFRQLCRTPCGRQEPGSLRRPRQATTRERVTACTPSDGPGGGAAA
T2 sequence (P33533 whole entry): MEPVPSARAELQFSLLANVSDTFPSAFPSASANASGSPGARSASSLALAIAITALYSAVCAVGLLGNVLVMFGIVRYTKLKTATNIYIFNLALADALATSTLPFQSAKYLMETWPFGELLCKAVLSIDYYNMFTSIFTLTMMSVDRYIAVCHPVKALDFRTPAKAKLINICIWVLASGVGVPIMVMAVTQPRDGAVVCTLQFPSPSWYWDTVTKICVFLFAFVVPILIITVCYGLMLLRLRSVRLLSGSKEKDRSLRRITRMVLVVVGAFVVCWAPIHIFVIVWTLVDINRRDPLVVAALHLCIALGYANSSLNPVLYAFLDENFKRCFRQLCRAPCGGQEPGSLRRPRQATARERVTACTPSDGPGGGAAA
T4 sequence (P33535 whole entry): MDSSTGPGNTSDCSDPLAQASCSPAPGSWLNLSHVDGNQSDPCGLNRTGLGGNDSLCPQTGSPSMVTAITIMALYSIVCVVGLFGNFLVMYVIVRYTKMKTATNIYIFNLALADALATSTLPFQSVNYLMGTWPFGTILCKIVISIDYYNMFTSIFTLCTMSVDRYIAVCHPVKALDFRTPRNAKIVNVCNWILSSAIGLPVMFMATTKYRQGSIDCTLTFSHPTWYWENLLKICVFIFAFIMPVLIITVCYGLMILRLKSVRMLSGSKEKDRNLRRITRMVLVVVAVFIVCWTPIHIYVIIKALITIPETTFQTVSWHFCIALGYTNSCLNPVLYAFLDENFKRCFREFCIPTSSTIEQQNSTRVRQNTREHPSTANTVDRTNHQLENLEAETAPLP

With `COc1cccc2c1[C@]13CCN(CC4CC4)[C@H](C2)[C@]1(OC)CCC(=O)C3` [cyprodime], in [1], the L-DOPA-induced dyskinesia result is “reduce completely”.
Consider `CCN(CC)C(=O)c1ccc([C@H](c2cccc(O)c2)N2C[C@@H](C)N(Cc3cccc(F)c3)C[C@@H]2C)cc1` [Formula (i), 4-((alpha-R)-alpha-((2S,5R)-2,5-Dimethyl-4-(3-fluorobenzyl)-1-piperazinyl)-3-hydroxybenzyl)-N,N-diethylbenzamide], for which, in the data set on rats, the “Oral seizure-like convulsant activity in rats” value is “no oral-seizure-like convulsant activity”. Moreover, the “Efficacy on locomotor activity (FIG. 1)” value in the data set on haloperidol-treated rats (haloperidol treated rats) and in the data set on reserpine treated rats was “clear efficacy” each time. For the same compound, the Ki on kappa-opioid receptor worked out at 567 nM; on delta-opioid receptor, 0.73 nM; on mu-opioid receptor it was 11.6 nM. In addition, the “Binding affinity for the delta receptor compared to SNC80” value at delta-opioid receptor is listed as “increased binding affinity”. In addition, the “Overshoot of locomotor activation beyond normal control animals” value in data set [2] is “No evidence for overshoot of locomotor activation”. Also, the “Oral activity in Parkinson's disease rodent models” value in data set [2] is “Orally active”. Also, on delta receptor, the response was half-maximal at 2.6 nM (EC50). Further, the “Seizure-like convulsion incidence in mice (% of animals treated)” value in the data set on mice (Intravenous 0.3 mg/kg) was 0%; with mice (Intravenous 1 mg/kg), 50%; in the data set with mice (Intravenous 3 mg/kg), 40%; in the data set with mice (Oral 15 mg/kg), 23%. In the data set on mice, the “Seizure activity in mice relative to SNC80” value was “reduced relative to SNC80”. Also, at mu-opioid receptor, the “Binding affinity for the mu receptor compared to SNC80” value is given as “increased binding affinity”.
For the compound `Oc1ccc2c3c1O[C@H]1c4[nH]c5ccccc5c4C[C@@]4(O)[C@@H](C2)N(CC2CC2)CC[C@]314` [naltrindole, reference compound], the “Effect alone in haloperidol treated rats (FIG. 4)” value in the data set on haloperidol-treated rats (naltrindole alone) is “no effect”.
Turning to `CCN(CC)C(=O)c1ccc([C@H](c2cccc(OC)c2)N2C[C@@H](C)N(Cc3ccccc3F)C[C@@H]2C)cc1` [Formula (iv), 4-((alpha-R)-alpha-((2S,5R)-2,5-Dimethyl-4-(2-fluorobenzyl)-1-piperazinyl)-3-methoxybenzyl)-N,N-diethylbenzamide], the Ki amounted to 100 nM on kappa-opioid receptor, 4.2 nM on delta-opioid receptor and 5000 nM at mu-opioid receptor. Further, it took 4.1 nM to reach a half-maximal effect on delta receptor (EC50). Further, the “Seizure-like convulsion incidence in mice (% of animals treated)” value with mice (Intravenous 1 mg/kg) amounted to 0%; with mice (Intravenous 3 mg/kg), 20%; in the data set on mice (Oral 30 mg/kg) it was 0%; with mice (Oral 60 mg/kg), 10%.
Regarding `CCN(CC)C(=O)c1ccc([C@H](c2cccc(O)c2)N2C[C@@H](C)N(Cc3ccccc3F)C[C@@H]2C)cc1` [Formula (ii), 4-((Alpha-R)-Alpha-((2S,5R)-2,5-Dimethyl-4-(2-fluorobenzyl)-1-piperazinyl)-3-hydroxybenzyl)-N,N-diethylbenzamide], the “Efficacy on locomotor activity (FIG. 1)” value with haloperidol-treated rats (haloperidol treated rats) and in the data set with reserpine treated rats was “clear efficacy” in each case. Moreover, in the data set on haloperidol-treated rats (haloperidol treated rats, with naltrindole (NTI)), the “Beneficial effects in presence of delta receptor antagonist naltrindole (FIG. 4)” value is reported as “completely blocked”. Besides, the “Anti-parkinsonian syndrome effects (FIG. 3B)” value with haloperidol-treated rats (haloperidol-treated rats, i.p. (intraperitoneal)) is given as “shows potency”. Also, in the data set on haloperidol-treated rats (haloperidol-treated rats, p.o. (oral, by gavage)), the “Anti-parkinsonian syndrome effects (FIG. 3A)” value is given as “shows potency”. The Ki is 171 nM on kappa-opioid receptor; 0.77 nM on delta-opioid receptor (rat whole brain homogenate, 0.1 nM [3H]DPDPE, read-out: Receptor Binding Affinity, Ki Delta); 7.8 nM on mu-opioid receptor. For the same compound, on delta-opioid receptor, the “Binding affinity for the delta receptor compared to SNC80” value was “increased binding affinity”. Besides, the “Overshoot of locomotor activation beyond normal control animals” value in data set [2] is on record as “No evidence for overshoot of locomotor activation”. In [2], the “Oral activity in Parkinson's disease rodent models” value was “Orally active”. Further, on delta receptor, the EC50 was 3 nM. The “Seizure-like convulsion incidence in mice (% of animals treated)” value in the data set with mice (Intravenous 1 mg/kg) was 0%; in the data set on mice (Intravenous 3 mg/kg), 30%; with mice (Oral 15 mg/kg), 20%; in the data set on mice (Oral 30 mg/kg) it was 20%; with mice (Oral 60 mg/kg), 30%. The “Seizure activity in mice relative to SNC80” value in the data set with mice was “reduced relative to SNC80”. The “Binding affinity for the mu receptor compared to SNC80” value on mu-opioid receptor is reported as “increased binding affinity”.
As to `CCN(CC)C(=O)c1ccc([C@H](c2cccc(OC)c2)N2C[C@@H](C)N(Cc3cccc(F)c3)C[C@@H]2C)cc1` [Formula (iii), 4-((alpha-R)-alpha-((2S,5R)-2,5-Dimethyl-4-(3-fluorobenzyl)-1-piperazinyl)-3-methoxybenzyl)-N,N-diethylbenzamide], the Ki at kappa-opioid receptor came to 100 nM; on delta-opioid receptor, 5.6 nM; at mu-opioid receptor, 5000 nM. The compound further came in with an EC50 on delta receptor of 29 nM. The “Seizure-like convulsion incidence in mice (% of animals treated)” value in the data set on mice (Intravenous 3 mg/kg) was 20%; in the data set on mice (Oral 60 mg/kg), 0%.

The record behind these values is US9701645B2 (priority 2005, dated 2017).
